# Test system: 922993-354-T-J3-PDC complex spheroids, viability
# Experiment: Anticancer human tumor 922993-354-T-J3-PDC patient-derived endometrial carcinoma cell line growth inhibition [GQUAD]
# Details: for IC50: curve of first compound; for viability, T/C: stronger effect = lower value
# Source text: DNA G-quadruplex Stabilizer Agents in Combinations in Complex Spheroids
# A high-throughput screen of multi-cell type tumor spheroids was designed to identify active combinations of DNA G-quadruplex stabilizer agents and targeted small molecules. Complex spheroids include a stromal component modeled by human endothelial cells (HUVEC) and fibroblasts modeled by human mesenchymal stem cells (MSCs). The concentration ranges selected for each drug and investigational agent were based upon clinically achievable concentrations if the clinical Cmax of the agent was known.
# Compounds. The drugs and investigational agents: pidnarulex (CX-5461; NSC782164), APTO-253 (NSC789042), BRACO-19 (NSC847499), peposertib (NSC802822), ceralasertib (NSC780249), elimusertib (NSC800525), camonsertib (NSC841442), AZD-1390 (NSC803789), olaparib (NSC753686), talazoparib (NSC767125), ART-558 (NSC835418), sotorasib (NSC818433), MRTX-1133 (NSC836407), SN-38 (NSC673596), topotecan (NSC609699), etoposide (NSC141540), doxorubicin (NSC123127), gemcitabine (NSC613327), 5-fluorouracil (NSC19893), paclitaxel (NSC125973), vemurafenib (NSC761431), panobinostat (NSC761190), R-306465 (JNJ-16241199; NSC773264), adavosertib (NSC754352), TP-3654 (NSC805149), carboplatin (NSC241240), KSQ-4279 (NSC840948), and staurosporine (NSC755774) were obtained from the National Cancer Institute (NCI) Developmental Therapeutics Program Chemical Repository (34). The FDA-approved anticancer drug set is available from the NCI Developmental Therapeutics Program. […] The stock solutions were prepared in dimethyl sulfoxide (DMSO, Sigma-Aldrich, St. Louis, MO, cat. D2650) at 800-fold the tested concentration and stored at -70 degrees C prior to their use. All drugs and investigational agents were tested over a range starting from a high concentration at or near the clinical Cmax and decreasing in half-log increments. If the clinical Cmax for an agent had not been determined, the highest concentration tested was 10 microM.
# 2.3 Cell Culture. All cells were maintained in an incubator at 37 degrees C and 5% CO2 with 95% humidity. The PDC lines were cultured according to standard operating procedures established by the NCI PDMR. All PDCs were thawed and cultured in Matrigel-coated flasks prepared with a working solution of 1X Ham's F-12 nutrient mix, without supplementation (Invitrogen, cat. 11765054), 100 U/mL penicillin-streptomycin (Invitrogen, cat. 15140122), and 2.5% Matrigel (Corning Inc., cat. 354248) for the first three passages. The 857933-349-R-J2-PDC line was cultured in 6C/Colon 1B media, which includes advanced DMEM/F-12 (Thermo Fisher Scientific, cat. 12634028), 10 mM HEPES (Thermo Fisher Scientific, cat. 15630080), 1X GlutaMAX supplement (Thermo Fisher Scientific, cat. 35050061), 0.1 mg/mL primocin (InvivoGen, cat. ant-pm-2), 10% defined fetal bovine serum, heat inactivated (HyClone Laboratories Inc., cat. SH30070.03HI), 50% L-WRN conditioned media (ATCC, cat. CRL-3276), 1.25 mM N-Acetyl-L-cysteine (Sigma-Aldrich, cat. A9165), 10 mM nicotinamide (Sigma-Aldrich, cat. N0636), 1X B-27 supplement (Thermo Fisher Scientific, cat. 17504044), 1X N-2 supplement (Thermo Fisher Scientific, cat. 17502048), 10 microM Y-27632 dihydrochloride (Tocris Bioscience, cat. 1254), and 50 ng/mL human EGF recombinant protein (Thermo Fisher Scientific, cat. PHG0311). The 485176-168-R4-J1-PDC line was cultured in Panc media, which includes all 6C/Colon 1B media components plus 100 ng/mL human FGF-10 (Thermo Fisher Scientific, cat. 100-26), 500 nM SB-431542 (Selleckchem, cat. S1067), and gastrin (Tocris, cat. 3006).
# […]
# 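Further: spheroids exposed to compounds for seven days.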
# 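Wherever viability, T/C is given: 100% = DMSO vehicle control viability.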
structure (smiles),measurement,setting,value
CC(C)(O)C1CCC(Nc2ccc3ncc(-c4cccc(C(F)(F)F)c4)n3n2)CC1 (configuration not stated) + Cc1cnc(CNC(=O)c2c(=O)c3ccc(N4CCCN(C)CC4)nc3n3c2sc2ccccc23)cn1,IC50,second compound 0.0316 µM,> 10000 nM
same,IC50,second compound 0.1 µM,> 10000 nM
same,IC50,second compound 0.316 µM,31.6 nM
same,IC50,second compound 1 µM,< 31.6 nM
same,IC50,second compound 3.16 µM,< 31.6 nM
same,IC50,second compound 10 µM,< 31.6 nM
same,"viability, T/C","second compound 0.0316 µM, first compound 0.0316 µM",89.5%
same,"viability, T/C","second compound 0.0316 µM, first compound 0.1 µM",97.4%
same,"viability, T/C","second compound 0.0316 µM, first compound 0.316 µM",67.9%
same,"viability, T/C","second compound 0.0316 µM, first compound 1 µM",90.6%
same,"viability, T/C","second compound 0.0316 µM, first compound 3.16 µM",105%
same,"viability, T/C","second compound 0.0316 µM, first compound 10 µM",84.1%
same,"viability, T/C","second compound 0.1 µM, first compound 0.0316 µM",69%
same,"viability, T/C","second compound 0.1 µM, first compound 0.1 µM",71.9%
same,"viability, T/C","second compound 0.1 µM, first compound 0.316 µM",51.2%
same,"viability, T/C","second compound 0.1 µM, first compound 1 µM",59.6%
same,"viability, T/C","second compound 0.1 µM, first compound 3.16 µM",65.8%
same,"viability, T/C","second compound 0.1 µM, first compound 10 µM",67.6%
same,"viability, T/C","second compound 0.316 µM, first compound 0.0316 µM",48.6%
same,"viability, T/C","second compound 0.316 µM, first compound 0.1 µM",58.8%
same,"viability, T/C","second compound 0.316 µM, first compound 0.316 µM",48.4%
same,"viability, T/C","second compound 0.316 µM, first compound 1 µM",47.5%
same,"viability, T/C","second compound 0.316 µM, first compound 3.16 µM",65.9%
same,"viability, T/C","second compound 0.316 µM, first compound 10 µM",58.2%
same,"viability, T/C","second compound 1 µM, first compound 0.0316 µM",47.8%
same,"viability, T/C","second compound 1 µM, first compound 0.1 µM",51.8%
same,"viability, T/C","second compound 1 µM, first compound 0.316 µM",40.4%
same,"viability, T/C","second compound 1 µM, first compound 1 µM",53.1%
same,"viability, T/C","second compound 1 µM, first compound 3.16 µM",57.4%
same,"viability, T/C","second compound 1 µM, first compound 10 µM",54.8%
same,"viability, T/C","second compound 3.16 µM, first compound 0.0316 µM",40.7%
same,"viability, T/C","second compound 3.16 µM, first compound 0.1 µM",43.9%
same,"viability, T/C","second compound 3.16 µM, first compound 0.316 µM",38.8%
same,"viability, T/C","second compound 3.16 µM, first compound 1 µM",47.4%
same,"viability, T/C","second compound 3.16 µM, first compound 3.16 µM",41.4%
same,"viability, T/C","second compound 3.16 µM, first compound 10 µM",37.5%
same,"viability, T/C","second compound 10 µM, first compound 0.0316 µM",36.7%
same,"viability, T/C","second compound 10 µM, first compound 0.1 µM",47.4%
same,"viability, T/C","second compound 10 µM, first compound 0.316 µM",31%
same,"viability, T/C","second compound 10 µM, first compound 1 µM",18.5%
same,"viability, T/C","second compound 10 µM, first compound 3.16 µM",9.55%
same,"viability, T/C","second compound 10 µM, first compound 10 µM",4.71%

# Reference: PubChem BioAssay AID2060489 (Molecular Pharmacology Branch, DTP, NCI, 2025)
